From patent publication US20220009920A1 (GB005, Inc., priority 2020, published 2022)

Legend:
Test in all cases: Large panel kinase profiling
Assay type in all cases: biochemical
Conditions in all cases: 1 μM test article, 1 mM ATP
[1] = target: T1, CDK6/D3 (Homo sapiens, UniProt Q00534)
T1 construct: AssayQuant Technologies, Inc. (ran the panel)
Summary of the method: (§1)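 With ATP fixed at 1 mM, each kinase was exposed to 1 μM compound in a PhosphoSens CSox-Sensor reaction. Sealed plates were incubated at 30° C. and read in kinetic mode.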

[2] = target: T2, EPHB4 (Homo sapiens, UniProt P54760)
T2 sequence (P54760 16-987): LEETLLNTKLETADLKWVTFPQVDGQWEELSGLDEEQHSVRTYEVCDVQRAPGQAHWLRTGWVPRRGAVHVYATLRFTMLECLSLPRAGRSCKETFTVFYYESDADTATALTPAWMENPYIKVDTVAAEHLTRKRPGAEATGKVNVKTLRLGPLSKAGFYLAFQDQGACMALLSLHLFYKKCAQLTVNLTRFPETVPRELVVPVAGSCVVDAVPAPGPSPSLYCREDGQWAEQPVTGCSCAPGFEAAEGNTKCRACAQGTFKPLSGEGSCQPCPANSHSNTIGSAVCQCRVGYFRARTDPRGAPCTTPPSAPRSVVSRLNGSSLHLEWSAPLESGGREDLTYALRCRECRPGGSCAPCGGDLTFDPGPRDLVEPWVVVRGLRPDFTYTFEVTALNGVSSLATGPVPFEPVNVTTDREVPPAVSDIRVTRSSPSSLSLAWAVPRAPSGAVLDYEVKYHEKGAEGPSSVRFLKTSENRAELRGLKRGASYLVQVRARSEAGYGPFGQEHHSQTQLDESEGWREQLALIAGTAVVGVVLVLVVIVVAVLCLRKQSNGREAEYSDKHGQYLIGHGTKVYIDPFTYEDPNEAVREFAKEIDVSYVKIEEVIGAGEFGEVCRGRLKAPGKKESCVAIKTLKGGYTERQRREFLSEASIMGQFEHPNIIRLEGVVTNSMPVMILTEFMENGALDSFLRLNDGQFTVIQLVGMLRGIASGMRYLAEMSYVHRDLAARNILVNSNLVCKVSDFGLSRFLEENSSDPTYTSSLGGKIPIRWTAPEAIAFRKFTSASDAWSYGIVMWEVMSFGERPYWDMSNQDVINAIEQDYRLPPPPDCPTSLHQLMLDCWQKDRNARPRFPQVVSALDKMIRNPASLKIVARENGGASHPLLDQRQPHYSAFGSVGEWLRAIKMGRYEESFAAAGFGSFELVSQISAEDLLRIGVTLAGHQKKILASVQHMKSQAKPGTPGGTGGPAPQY
Summary of the method: as §1

[3] = target: T3, MUSK (Homo sapiens, UniProt O15146)
T3 construct: AssayQuant Technologies, Inc. (assay service)
T3 sequence (O15146 24-869): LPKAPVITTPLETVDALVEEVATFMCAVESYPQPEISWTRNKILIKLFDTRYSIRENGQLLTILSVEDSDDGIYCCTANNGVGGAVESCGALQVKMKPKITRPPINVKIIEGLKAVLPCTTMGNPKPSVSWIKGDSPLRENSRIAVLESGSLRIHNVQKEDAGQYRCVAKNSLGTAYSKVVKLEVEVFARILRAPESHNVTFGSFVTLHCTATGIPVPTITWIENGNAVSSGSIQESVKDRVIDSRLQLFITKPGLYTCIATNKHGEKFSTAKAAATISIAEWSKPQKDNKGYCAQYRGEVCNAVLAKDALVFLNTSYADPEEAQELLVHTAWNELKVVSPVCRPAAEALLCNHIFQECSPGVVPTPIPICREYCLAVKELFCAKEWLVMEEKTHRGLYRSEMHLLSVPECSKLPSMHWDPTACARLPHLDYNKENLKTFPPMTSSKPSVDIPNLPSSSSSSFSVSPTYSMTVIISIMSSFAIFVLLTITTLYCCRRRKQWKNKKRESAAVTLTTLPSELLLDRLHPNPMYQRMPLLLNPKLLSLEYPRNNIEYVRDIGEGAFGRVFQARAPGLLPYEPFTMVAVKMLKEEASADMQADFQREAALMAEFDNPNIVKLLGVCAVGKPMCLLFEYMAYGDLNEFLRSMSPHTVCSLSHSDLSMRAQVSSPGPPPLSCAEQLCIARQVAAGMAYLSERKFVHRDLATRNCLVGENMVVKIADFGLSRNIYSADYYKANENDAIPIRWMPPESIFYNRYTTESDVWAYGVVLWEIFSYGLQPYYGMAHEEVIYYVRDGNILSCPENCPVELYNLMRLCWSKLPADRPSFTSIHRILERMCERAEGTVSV
Summary of the method: as §1

[4] = target: PTK6 (Homo sapiens, UniProt Q13882)
Sequence of PTK6 (Q13882 whole entry, species assumed): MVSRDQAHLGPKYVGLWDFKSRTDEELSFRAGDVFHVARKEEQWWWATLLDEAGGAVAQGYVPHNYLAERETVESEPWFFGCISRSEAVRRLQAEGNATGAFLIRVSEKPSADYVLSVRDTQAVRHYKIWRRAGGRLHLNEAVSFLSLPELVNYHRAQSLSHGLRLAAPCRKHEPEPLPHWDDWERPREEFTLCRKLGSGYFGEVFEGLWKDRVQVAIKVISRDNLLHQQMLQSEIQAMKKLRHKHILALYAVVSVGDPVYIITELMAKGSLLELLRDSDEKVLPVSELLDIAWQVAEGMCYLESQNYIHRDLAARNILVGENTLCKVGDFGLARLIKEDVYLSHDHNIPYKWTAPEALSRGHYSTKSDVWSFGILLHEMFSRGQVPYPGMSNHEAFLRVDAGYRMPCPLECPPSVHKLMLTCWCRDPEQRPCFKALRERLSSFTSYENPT
Summary of the method: as §1

[5] = target: T4, SGK3 (Homo sapiens, UniProt Q96BR1)
T4 construct: AssayQuant Technologies, Inc. (contract assay)
T4 sequence (Q96BR1 1-496): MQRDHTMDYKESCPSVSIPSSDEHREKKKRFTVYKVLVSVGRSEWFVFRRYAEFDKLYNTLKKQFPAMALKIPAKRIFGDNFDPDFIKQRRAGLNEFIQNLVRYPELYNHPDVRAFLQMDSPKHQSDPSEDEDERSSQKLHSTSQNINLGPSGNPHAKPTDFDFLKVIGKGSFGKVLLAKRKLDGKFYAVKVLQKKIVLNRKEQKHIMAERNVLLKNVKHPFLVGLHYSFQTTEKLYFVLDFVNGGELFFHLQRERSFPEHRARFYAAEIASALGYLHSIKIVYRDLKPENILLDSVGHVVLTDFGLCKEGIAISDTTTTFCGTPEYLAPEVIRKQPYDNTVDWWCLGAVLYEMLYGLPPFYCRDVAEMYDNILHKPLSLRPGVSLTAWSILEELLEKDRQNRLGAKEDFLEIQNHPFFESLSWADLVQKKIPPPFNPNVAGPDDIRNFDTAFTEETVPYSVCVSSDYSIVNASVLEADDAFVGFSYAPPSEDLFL
Summary of the method: as §1

T1 sequence (Q00534 whole entry, species assumed): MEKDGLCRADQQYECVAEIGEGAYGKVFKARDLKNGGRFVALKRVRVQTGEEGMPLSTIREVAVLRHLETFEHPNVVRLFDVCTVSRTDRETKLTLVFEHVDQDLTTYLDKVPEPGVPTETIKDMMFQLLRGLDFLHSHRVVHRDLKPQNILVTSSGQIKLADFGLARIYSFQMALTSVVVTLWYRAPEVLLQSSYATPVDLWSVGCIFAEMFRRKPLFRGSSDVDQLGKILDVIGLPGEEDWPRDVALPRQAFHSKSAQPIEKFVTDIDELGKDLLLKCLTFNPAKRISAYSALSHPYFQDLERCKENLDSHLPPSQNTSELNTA
T1 sequence (P30281 whole entry partner, species assumed): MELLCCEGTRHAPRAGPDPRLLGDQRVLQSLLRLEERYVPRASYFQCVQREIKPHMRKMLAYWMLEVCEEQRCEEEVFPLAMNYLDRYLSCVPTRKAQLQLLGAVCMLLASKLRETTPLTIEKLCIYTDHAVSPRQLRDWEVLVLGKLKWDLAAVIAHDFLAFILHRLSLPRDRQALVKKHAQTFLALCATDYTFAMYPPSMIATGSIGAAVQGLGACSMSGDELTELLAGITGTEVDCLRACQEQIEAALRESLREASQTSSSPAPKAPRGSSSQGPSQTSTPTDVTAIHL

Compound	inhibition at 1 µM [1] [%]	inhibition at 1 µM [2] [%]	inhibition at 1 µM [3] [%]	inhibition at 1 µM [4] [%]	inhibition at 1 µM [5] [%]
C=CC(=O)N1CCCC(c2c(F)cc(C(N)=O)c3[nH]c4c(c23)CCCCC4)C1 (single isomer, unassigned) [Compound 5-6]	-8	7	10.9	-14.1	-28.1
C=CC(=O)N1CCC[C@@H](c2c(F)cc(C(N)=O)c3[nH]c4c(c23)CC2(CC4)CC2)C1 [Compound 6-2, (S)-5-(1-acryloylpiperidin-3-yl)-6-fluoro-1,2,4,9-tetrahydrospiro[carbazole-3,1′-cyclopropane]-8-carboxamide]	-6.1	7.4	-3.1	22.2	-19.9
C=CC(=O)N1CCC[C@@H](c2c(F)cc(C(N)=O)c3[nH]c4c(c23)CCC4)C1 [Compound 10-2, (S)-8-(1-acryloylpiperidin-3-yl)-7-fluoro-1,2,3,4-tetrahydrocyclo-penta[b]indole-5-carboxamide]	-18.4	-8.5	3	10.1	-32.5
